Assay results: ChEMBL document CHEMBL1201862, “PubChem BioAssay data set” (2004)
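Briefly, cells in 96-well plates were exposed to five compound concentrations for 48 h, and endpoints were estimated by linear interpolation. GI50: concentration for 50% inhibition of growth.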 Activity calls are given as the source filed them. Rule as the data show it: active = GI50 up to about 1.1 µM and inactive = higher.

What was measured:
Test in all cases: inhibition of tumour cell growth, NCI panel, 48 h
786-0 = tested on: 786-0
A498 = tested on: A498
A549 = tested on: A549
ACHN = tested on: ACHN
CAKI-1 = tested on: CAKI-1
CCRF-CEM = tested on: CCRF-CEM
COLO 205 = tested on: COLO 205
DLD-1 = tested on: DLD-1
DMS-114 = tested on: DMS-114
DMS-273 = tested on: DMS-273
HCC 2998 = tested on: HCC 2998
HCT-116 = tested on: HCT-116
HCT-15 = tested on: HCT-15
HOP-18 = tested on: HOP-18
HOP-92 = tested on: HOP-92
HT-29 = tested on: HT-29
IGROV-1 = tested on: IGROV-1
K562 = tested on: K562
KM-20L2 = tested on: KM-20L2
LOX IMVI = tested on: LOX IMVI
LXFL 529 = tested on: LXFL 529
M14 = tested on: M14
M19-MEL = tested on: M19-MEL
MOLT-4 = tested on: MOLT-4
Malme-3M = tested on: Malme-3M
NCI-H226 = tested on: NCI-H226
NCI-H23 = tested on: NCI-H23
NCI-H460 = tested on: NCI-H460
NCI-H522 = tested on: NCI-H522
OVCAR-3 = tested on: OVCAR-3
OVCAR-4 = tested on: OVCAR-4
OVCAR-5 = tested on: OVCAR-5
OVCAR-8 = tested on: OVCAR-8
RPMI-8226 = tested on: RPMI-8226
RXF 393 = tested on: RXF 393
SF-268 = tested on: SF-268
SK-MEL-28 = tested on: SK-MEL-28
SK-MEL-2 = tested on: SK-MEL-2
SK-OV-3 = tested on: SK-OV-3
SN12C = tested on: SN12C
SNB-75 = tested on: SNB-75
SNB-78 = tested on: SNB-78
SW-620 = tested on: SW-620
TK-10 = tested on: TK-10
U-251 = tested on: U-251
UACC-257 = tested on: UACC-257
UACC-62 = tested on: UACC-62
UO-31 = tested on: UO-31
EKVX = tested on: EKVX
HL-60 = tested on: HL-60
HOP-62 = tested on: HOP-62
KM12 = tested on: KM12
SF-295 = tested on: SF-295
SK-MEL-5 = tested on: SK-MEL-5
SNB-19 = tested on: SNB-19
SR = tested on: SR
SF-539 = tested on: SF-539

Compound: COC(=O)C1=C(C)N(NC(=O)Nc2ccccc2)C2(N)N(NC(=O)Nc3ccccc3)C(C)=C(C(=O)OC)C12C(=O)OC (stereo unspecified)
- GI50 (786-0): 66.7 µM (inactive)
- GI50 (A498): 59.6 µM (inactive)
- GI50 (A549): > 100 µM (inactive)
- GI50 (ACHN): 98.2 µM (inactive)
- GI50 (CAKI-1): 23.7 µM (inactive)
- GI50 (CCRF-CEM): 35.2 µM (inactive)
- GI50 (COLO 205): 34.7 µM (inactive)
- GI50 (DLD-1): 55.7 µM (inactive)
- GI50 (DMS-114): 77.1 µM (inactive)
- GI50 (DMS-273): 40.3 µM (inactive)
- GI50 (HCC 2998): 39.4 µM (inactive)
- GI50 (HCT-116): > 100 µM (inactive)
- GI50 (HCT-15): 76.4 µM
- GI50 (HOP-18): 81.8 µM (inactive)
- GI50 (HOP-92): > 100 µM (inactive)
- GI50 (HT-29): 65.2 µM (inactive)
- GI50 (IGROV-1): 24.5 µM (inactive)
- GI50 (K562): 51.9 µM (inactive)
- GI50 (KM-20L2): > 100 µM (inactive)
- GI50 (LOX IMVI): 72.6 µM (inactive)
- GI50 (LXFL 529): 62.5 µM (inactive)
- GI50 (M14): 47.5 µM (inactive)
- GI50 (M19-MEL): 25.1 µM (inactive)
- GI50 (MOLT-4): 27.1 µM (inactive)
- GI50 (Malme-3M): 84.5 µM (inactive)
- GI50 (NCI-H226): 60.4 µM (inactive)
- GI50 (NCI-H23): > 100 µM (inactive)
- GI50 (NCI-H460): 38.3 µM (inactive)
- GI50 (NCI-H522): 32.3 µM (inactive)
- GI50 (OVCAR-3): 54.2 µM (inactive)
- GI50 (OVCAR-4): 64.9 µM (inactive)
- GI50 (OVCAR-5): > 100 µM (inactive)
- GI50 (OVCAR-8): 71 µM (inactive)
- GI50 (RPMI-8226): 26.8 µM (inactive)
- GI50 (RXF 393): 75.9 µM (inactive)
- GI50 (SF-268): > 100 µM (inactive)
- GI50 (SK-MEL-28): > 100 µM (inactive)
- GI50 (SK-MEL-2): 36 µM (inactive)
- GI50 (SK-OV-3): > 100 µM (inactive)
- GI50 (SN12C): 63.2 µM (inactive)
- GI50 (SNB-75): 36.1 µM (inactive)
- GI50 (SNB-78): 26.1 µM (inactive)
- GI50 (SW-620): 63.4 µM (inactive)
- GI50 (TK-10): 69.3 µM (inactive)
- GI50 (U-251): 43.3 µM (inactive)
- GI50 (UACC-257): 16.4 µM (inactive)
- GI50 (UACC-62): 41.3 µM (inactive)
- GI50 (UO-31): > 100 µM (inactive)

Compound: CCCCCC[N+](C)(C)Cc1ccc(C[N+](C)(C)CCCCCC)cc1
- GI50 (786-0): 3.52 µM (inactive)
- GI50 (A498): 11.2 µM (inactive)
- GI50 (A549): 3.36 µM (inactive)
- GI50 (ACHN): 3.56 µM (inactive)
- GI50 (CAKI-1): 3.19 µM (inactive)
- GI50 (CCRF-CEM): 2.73 µM (inactive)
- GI50 (COLO 205): 1.82 µM (inactive)
- GI50 (DLD-1): 4.42 µM (inactive)
- GI50 (DMS-114): 1.75 µM (inactive)
- GI50 (DMS-273): 1.83 µM (inactive)
- GI50 (EKVX): 3.94 µM (inactive)
- GI50 (HCC 2998): 3.84 µM (inactive)
- GI50 (HCT-116): 3.71 µM (inactive)
- GI50 (HCT-15): 4 µM
- GI50 (HL-60): 4.33 µM (inactive)
- GI50 (HOP-18): 4.69 µM (inactive)
- GI50 (HOP-62): 3.05 µM (inactive)
- GI50 (HOP-92): 2.97 µM (inactive)
- GI50 (HT-29): 3.8 µM (inactive)
- GI50 (IGROV-1): 2.54 µM (inactive)
- GI50 (K562): 1.61 µM (inactive)
- GI50 (KM-20L2): 6.56 µM (inactive)
- GI50 (KM12): 2.25 µM (inactive)
- GI50 (LOX IMVI): 2.09 µM (inactive)
- GI50 (LXFL 529): 3.33 µM (inactive)
- GI50 (M14): 3.48 µM (inactive)
- GI50 (M19-MEL): 1.94 µM (inactive)
- GI50 (MOLT-4): 1.54 µM (inactive)
- GI50 (Malme-3M): 7.76 µM (inactive)
- GI50 (NCI-H226): 3.51 µM (inactive)
- GI50 (NCI-H23): 1.82 µM (inactive)
- GI50 (NCI-H460): 2.64 µM (inactive)
- GI50 (NCI-H522): 1.74 µM (inactive)
- GI50 (OVCAR-3): 3.78 µM (inactive)
- GI50 (OVCAR-4): 4.58 µM (inactive)
- GI50 (OVCAR-5): 10.9 µM (inactive)
- GI50 (OVCAR-8): 3.1 µM (inactive)
- GI50 (RPMI-8226): 4.23 µM (inactive)
- GI50 (RXF 393): 0.984 µM (active)
- GI50 (SF-268): 2.79 µM (inactive)
- GI50 (SF-295): 2.79 µM (inactive)
- GI50 (SK-MEL-28): 4.95 µM (inactive)
- GI50 (SK-MEL-2): 2.14 µM (inactive)
- GI50 (SK-MEL-5): 6.64 µM (inactive)
- GI50 (SK-OV-3): 9.66 µM (inactive)
- GI50 (SN12C): 3.49 µM (inactive)
- GI50 (SNB-19): 5.2 µM (inactive)
- GI50 (SNB-75): 2.8 µM (inactive)
- GI50 (SNB-78): 1.16 µM (inactive)
- GI50 (SR): 2.19 µM (inactive)
- GI50 (SW-620): 4.84 µM (inactive)
- GI50 (TK-10): 5.64 µM (inactive)
- GI50 (U-251): 2.57 µM (inactive)
- GI50 (UACC-257): 10.8 µM (inactive)
- GI50 (UACC-62): 8.32 µM (inactive)
- GI50 (UO-31): 8.43 µM (inactive)

Compound: CC(C)(O)/C=C/C(=O)[C@](C)(O)[C@H]1[C@H](O)C[C@@]2(C)[C@@H]3CC=C4[C@@H](C[C@H](O)C(=O)C4(C)C)[C@]3(C)C(=O)C[C@]12C [CUCURBITACIN D]
- GI50 (786-0): 0.1 µM (active)
- GI50 (A498): 0.0506 µM (active)
- GI50 (A549): 0.177 µM (active)
- GI50 (CAKI-1): 0.116 µM (active)
- GI50 (CCRF-CEM): 0.0687 µM (active)
- GI50 (COLO 205): 0.181 µM (active)
- GI50 (DLD-1): 0.0863 µM (active)
- GI50 (DMS-114): 0.199 µM (active)
- GI50 (DMS-273): 0.034 µM (active)
- GI50 (EKVX): 0.375 µM (active)
- GI50 (HCT-116): 0.112 µM (active)
- GI50 (HL-60): 0.262 µM (active)
- GI50 (HOP-18): 0.0748 µM (active)
- GI50 (HOP-62): 0.198 µM (active)
- GI50 (HOP-92): 0.195 µM (active)
- GI50 (HT-29): 0.112 µM (active)
- GI50 (IGROV-1): 0.376 µM (active)
- GI50 (K562): 0.287 µM (active)
- GI50 (KM-20L2): 0.163 µM (active)
- GI50 (KM12): 0.624 µM (active)
- GI50 (LOX IMVI): 0.0562 µM (active)
- GI50 (LXFL 529): 0.073 µM (active)
- GI50 (M14): 0.076 µM (active)
- GI50 (M19-MEL): 0.391 µM (active)
- GI50 (MOLT-4): 0.953 µM (active)
- GI50 (Malme-3M): 0.0679 µM (active)
- GI50 (NCI-H226): 0.277 µM (active)
- GI50 (NCI-H23): 1.07 µM (active)
- GI50 (NCI-H460): 0.0895 µM (active)
- GI50 (NCI-H522): 0.128 µM (active)
- GI50 (OVCAR-3): 0.201 µM (active)
- GI50 (OVCAR-5): 1.04 µM (active)
- GI50 (OVCAR-8): 0.65 µM (active)
- GI50 (RPMI-8226): 0.0228 µM (active)
- GI50 (RXF 393): 0.0964 µM (active)
- GI50 (SF-268): 0.104 µM (active)
- GI50 (SF-295): 0.344 µM (active)
- GI50 (SF-539): 0.0826 µM (active)
- GI50 (SK-MEL-28): 0.0653 µM (active)
- GI50 (SK-MEL-2): 0.0543 µM (active)
- GI50 (SK-OV-3): 0.281 µM (active)
- GI50 (SN12C): 0.792 µM (active)
- GI50 (SNB-19): 0.249 µM (active)
- GI50 (SNB-75): 0.59 µM (active)
- GI50 (SNB-78): 0.0867 µM (active)
- GI50 (SR): 0.118 µM (active)
- GI50 (SW-620): 0.0914 µM (active)
- GI50 (TK-10): 0.239 µM (active)
- GI50 (U-251): 0.0923 µM (active)
- GI50 (UACC-257): 0.0968 µM (active)
- GI50 (UACC-62): 0.0438 µM (active)
- GI50 (UO-31): 0.272 µM (active)
